For one molecule, EC50 results are on record in patent publication US20140221499A1, “NOVEL RODENT CONTROL AGENTS AND USES THEREOF” (priority 2011, published 2014).

For this experiment, the target named is T1, mTAAR7f (Mus musculus, UniProt Q5QD08).
T1 sequence (Q5QD08 1-358): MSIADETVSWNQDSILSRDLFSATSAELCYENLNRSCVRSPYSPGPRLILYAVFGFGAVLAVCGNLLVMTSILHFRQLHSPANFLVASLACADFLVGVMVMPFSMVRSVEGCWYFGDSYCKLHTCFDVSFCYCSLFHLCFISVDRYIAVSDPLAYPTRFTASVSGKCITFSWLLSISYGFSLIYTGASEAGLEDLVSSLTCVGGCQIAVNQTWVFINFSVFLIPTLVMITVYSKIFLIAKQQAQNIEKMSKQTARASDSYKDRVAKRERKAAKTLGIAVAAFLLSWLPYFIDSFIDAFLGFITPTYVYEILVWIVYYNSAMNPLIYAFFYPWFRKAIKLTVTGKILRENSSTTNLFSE
Nature of the experiment: CRE-SEAP reporter gene assay in HEK293 cells transfected with mTAAR7f. Type of experiment: cell-based. Also on record: Full Taar coding regions were cloned into pcDNA3.1; expressed in transfected cells; host or cells: HEK293. Conditions: FIG. 11B, not the mutant mTAAR7f-SS, functional with or without 'Rho tag', EC50 ± s.e.m., 4-parameter Hill equation. Here is the method:
FIG. 11 illustrates the dose-dependent responses of TAARs to amines. HEK293 cells were cotransfected with plasmids encoding CRE-SEAP and rTAARs (a) or mTAARs (b), incubated with concentrations of ligands indicated, and assayed for reporter activity (triplicates±s.d.). EC50 values (±s.e.m, bottom right) were calculated using SigmaPlot (Systat Software) and a 4-parameter Hill equation.
Chemicals tested for the ability to activate mouse TAARs include those previously described (Liberles, S. D., and Buck, L. B. (2006) A second class of chemosensory receptors in the olfactory epithelium, Nature 442, 645-650), as well as the following mixes (5 μM of each indicated compounds). Mix 1: N,N-dimethyl-cyclohexylamine, N,N-dimethyl-phenylethylamine, creatinine, taurine. […]
Full Taar coding regions were cloned into pcDNA3.1-(Invitrogen) with or without a 5′ DNA extension of 69 bp encoding the first 20 amino acids of bovine rhodopsin followed by a cloning linker ([…]). […] Fluorescence was measured on an EnVision plate reader (Perkin Elmer) and SEAP activity graphed as relative fluorescence of a phosphatase substrate.
Here, we set out to identify agonists for additional mouse and rat TAARs. […] Transfected cells were incubated with test chemicals, and phosphatase activity was quantified with a fluorescent substrate as a reporter for TAAR activation. […]
(Reporter assays use an easily measured gene product as a stand-in for the process of interest.)

Molecules are shown by their SMILES.

By EC50 is commonly meant the concentration at which the effect is half-maximal. Read a high EC50 as lower potency in that assay. On to `CN(C)C1CCCCC1` [N,N-DIMETHYLCYCLOHEXYLAMINE, N,N-dimethylcyclohexylamine], for which the response was half-maximal at 440 ± 130 nM (EC50).
